What all share (format): biochemical
The target of one assay is T1, JAK3 (Homo sapiens, UniProt P52333).
T1 construct: purchased Invitrogen Corporation, Carlsbad, Calif; PV4080
T1 sequence (P52333 1-1124): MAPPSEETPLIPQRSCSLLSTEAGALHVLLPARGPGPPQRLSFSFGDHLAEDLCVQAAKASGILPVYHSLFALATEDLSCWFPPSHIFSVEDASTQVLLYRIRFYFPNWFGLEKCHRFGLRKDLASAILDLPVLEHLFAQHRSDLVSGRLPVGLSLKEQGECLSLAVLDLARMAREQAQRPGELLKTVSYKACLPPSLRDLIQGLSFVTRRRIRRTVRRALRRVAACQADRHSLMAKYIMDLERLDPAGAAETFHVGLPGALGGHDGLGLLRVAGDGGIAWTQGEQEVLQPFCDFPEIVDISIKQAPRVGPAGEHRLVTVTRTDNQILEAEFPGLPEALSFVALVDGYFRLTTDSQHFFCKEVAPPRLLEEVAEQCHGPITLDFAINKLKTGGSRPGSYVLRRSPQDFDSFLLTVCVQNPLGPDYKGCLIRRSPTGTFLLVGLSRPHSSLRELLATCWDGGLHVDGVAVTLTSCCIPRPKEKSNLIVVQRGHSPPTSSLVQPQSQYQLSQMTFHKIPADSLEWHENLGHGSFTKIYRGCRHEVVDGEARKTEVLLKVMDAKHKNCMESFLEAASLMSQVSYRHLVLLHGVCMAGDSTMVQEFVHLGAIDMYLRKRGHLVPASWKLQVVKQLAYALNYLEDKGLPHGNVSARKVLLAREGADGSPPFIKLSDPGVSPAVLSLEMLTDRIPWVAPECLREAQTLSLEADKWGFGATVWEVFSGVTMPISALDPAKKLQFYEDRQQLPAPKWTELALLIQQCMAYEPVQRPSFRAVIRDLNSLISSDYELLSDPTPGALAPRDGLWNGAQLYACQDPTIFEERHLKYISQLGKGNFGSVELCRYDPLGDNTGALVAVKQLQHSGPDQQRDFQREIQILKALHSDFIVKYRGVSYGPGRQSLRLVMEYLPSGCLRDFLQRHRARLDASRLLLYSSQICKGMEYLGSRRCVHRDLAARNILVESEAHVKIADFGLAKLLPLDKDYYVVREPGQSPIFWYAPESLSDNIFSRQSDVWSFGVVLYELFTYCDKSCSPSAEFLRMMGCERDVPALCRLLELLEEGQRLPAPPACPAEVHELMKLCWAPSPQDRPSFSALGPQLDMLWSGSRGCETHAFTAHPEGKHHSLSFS
Put plainly: JAK3 Inhibition Assay (Omnia kinase fluorescence peptide substrate assay). The settings on record: averaged IC50 ranges; assay of Example D; 10 μM (Km app) or 1 mM ATP, 2.5 nM JAK3. From the text: (§1) The assays described in Examples A, B, C and D for the determination of Tyk2, JAK1, JAK2 and JAK3 kinase activity, respectively, utilized the Omnia® Kinase fluorescence peptide substrate-based technology (Invitrogen). The specific components of the assay mixture are described in Examples A, B, C and D. In these assays, Mg^2+ is chelated upon phosphorylation of the Omnia peptide by the kinase to form a bridge between the chelation-enhanced fluorophore Sox and the phosphate, resulting in an increase in fluorescence emission at 485 nm when excited at […]. The reactions were therefore read at excitation 360 nm and emission was measured at 485 nm every 50 seconds for 45 minutes using a PerkinElmer EnVision Multilabel Plate Reader.
(§2) The final buffer conditions for Tyk2, JAK1, JAK2, and JAK3 assays were as follows: 25 mM HEPES, pH 7.4, 10 mM MgCl2, 0.01% Triton X-100 and 1 mM DTT.
(§3) Compounds were prepared at 50× the final concentration in DMSO by conducting 3-fold serial dilutions from a 500-μM intermediate dilution to give a 10-point dosing curve having a high dose of 10 μM. Two-μL aliquots of these were transferred to a fresh plate for a ten-fold intermediate dilution with assay buffer. Five-μL aliquots of the diluted compounds were then transferred to 20-μL of assay mixtures described in Examples A, B, C and D for a final concentration of DMSO of 2%. A standard or reference compound was typically included on each assay plate to validate that plate. For each plate, percent of control (POC) values were calculated for each well according to the following equation:
(§4) where Xmax=Average Uninhibited Controls • Xmin=Average Background IC50's were estimated from the POC's using a standard 4-parameter logistic model:
(§5) where • A=Minimum Y (Bottom Asymptote) • B=Maximum Y (Top Asymptote) • C=EC50 • D=Slope Factor • X=Compound Concentration (nM) • Y=POC
(§6) The IC50 is defined as the concentration of inhibitor at which the POC equals 50 for the fitted curve.
Compounds of Formula I were screened for their ability to inhibit JAK3 using the general enzyme inhibition assay method, in which the assay mixture contained 10 μM (Km app) or 1 mM ATP, 10 μM Omnia® Y7 peptide (Catalog #IVGN KNZ3071C, Invitrogen Corporation, Carlsbad, Calif.) and 2.5 nM JAK3 in a total volume of 20 μL. JAK3 was purchased from Invitrogen Corporation, Carlsbad, Calif. (catalog #IVGN PV4080).

Another assay concerns the target T2, JAK1 (Homo sapiens, UniProt P23458).
T2 construct: purchased Invitrogen Corporation, Carlsbad, Calif; PV4775
Put plainly: JAK1 Inhibition Assay (Omnia kinase fluorescence peptide substrate assay). To be noted: averaged IC50 ranges; assay of Example B; 40 μM (Km app) or 1 mM ATP, 15 nM JAK1.
Source text: as §1, §2, §3, §4, §5, §6
Compounds of Formula I were screened for their ability to inhibit JAK1 using the general enzyme inhibition assay method, in which the assay mixture contained 40 μM (Km app) or 1 mM ATP, 8 μM Omnia® Y12 peptide (Catalog #IVGN KPZ3121C; Invitrogen Corporation, Carlsbad, Calif.) and 15 nM JAK1 in a total volume of 20 μL. JAK1 was purchased from Invitrogen Corporation, Carlsbad, Calif. (catalog #IVGN PV4775).

A further assay addresses T3, Human Tyk2 kinase domain (Homo sapiens, UniProt P29597).
T3 construct: comprising amino acids 886 to 1187 with 10 additional histidine residues; 10xHis (histidine tag) (C, cleaved yes); made in house
T3 sequence (P29597 886-1187): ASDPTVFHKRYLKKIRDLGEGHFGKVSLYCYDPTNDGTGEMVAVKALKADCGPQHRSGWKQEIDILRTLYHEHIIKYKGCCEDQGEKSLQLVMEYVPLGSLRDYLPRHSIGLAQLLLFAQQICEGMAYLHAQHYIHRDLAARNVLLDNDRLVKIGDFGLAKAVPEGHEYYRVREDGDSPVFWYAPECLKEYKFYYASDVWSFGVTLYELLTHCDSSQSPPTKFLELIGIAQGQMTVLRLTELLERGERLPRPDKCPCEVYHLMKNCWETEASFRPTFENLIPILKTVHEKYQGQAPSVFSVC
Put plainly: Tyk2 Inhibition Assay (Omnia kinase fluorescence peptide substrate assay). The settings on record: averaged IC50 ranges; assay of Example A; 10 μM (Km app) or 1 mM ATP, 2 nM Tyk2.
Source text: as §1, §2, §3, §4, §5, §6
Compounds of Formula I were screened for their ability to inhibit Tyk2 using the general enzyme inhibition assay method, in which the assay mixture contained 10 μM (Km app) or 1 mM ATP, 8 μM Omnia® Y12 peptide (Catalog #IVGN KPZ3121C; Invitrogen Corporation, Carlsbad, Calif.) and 2 nM Tyk2 in a total volume of 20 μL. Human Tyk2 kinase domain, comprising amino acids 886 to 1187 with 10 additional histidine residues (histidine tag) on the carboxy terminus, was expressed and purified from bacculovirus in-house at Array BioPharma Inc. (Boulder, Colo.). The histidine tag was cleaved after purification using standard conditions.

Another assay concerns the target T4, JAK2 (Homo sapiens, UniProt O60674).
T4 construct: purchased Invitrogen Corporation, Carlsbad, Calif; PV4288
Put plainly: JAK2 Inhibition Assay (Omnia kinase fluorescence peptide substrate assay). To be noted: averaged IC50 ranges; assay of Example C; 25 μM (Km app) or 1 mM ATP, 5 nM JAK2.
Source text: as §1, §2, §3, §4, §5, §6
Compounds of Formula I were screened for their ability to inhibit JAK2 using the general enzyme inhibition assay method, in which the assay mixture contained 25 μM (Km app) or 1 mM ATP, 10 μM Omnia® Y7 peptide (Catalog #IVGN KNZ3071C, Invitrogen Corporation, Carlsbad, Calif.) and 5 nM JAK2 in a total volume of 20 μL. JAK2 was purchased from Invitrogen Corporation, Carlsbad, Calif. (catalog #IVGN PV4288).

The structures appear in SMILES notation. pIC50: −log10 of the molar value. Where a name gives a salt, the structure may show the parent alone.

T4 sequence (O60674 whole entry): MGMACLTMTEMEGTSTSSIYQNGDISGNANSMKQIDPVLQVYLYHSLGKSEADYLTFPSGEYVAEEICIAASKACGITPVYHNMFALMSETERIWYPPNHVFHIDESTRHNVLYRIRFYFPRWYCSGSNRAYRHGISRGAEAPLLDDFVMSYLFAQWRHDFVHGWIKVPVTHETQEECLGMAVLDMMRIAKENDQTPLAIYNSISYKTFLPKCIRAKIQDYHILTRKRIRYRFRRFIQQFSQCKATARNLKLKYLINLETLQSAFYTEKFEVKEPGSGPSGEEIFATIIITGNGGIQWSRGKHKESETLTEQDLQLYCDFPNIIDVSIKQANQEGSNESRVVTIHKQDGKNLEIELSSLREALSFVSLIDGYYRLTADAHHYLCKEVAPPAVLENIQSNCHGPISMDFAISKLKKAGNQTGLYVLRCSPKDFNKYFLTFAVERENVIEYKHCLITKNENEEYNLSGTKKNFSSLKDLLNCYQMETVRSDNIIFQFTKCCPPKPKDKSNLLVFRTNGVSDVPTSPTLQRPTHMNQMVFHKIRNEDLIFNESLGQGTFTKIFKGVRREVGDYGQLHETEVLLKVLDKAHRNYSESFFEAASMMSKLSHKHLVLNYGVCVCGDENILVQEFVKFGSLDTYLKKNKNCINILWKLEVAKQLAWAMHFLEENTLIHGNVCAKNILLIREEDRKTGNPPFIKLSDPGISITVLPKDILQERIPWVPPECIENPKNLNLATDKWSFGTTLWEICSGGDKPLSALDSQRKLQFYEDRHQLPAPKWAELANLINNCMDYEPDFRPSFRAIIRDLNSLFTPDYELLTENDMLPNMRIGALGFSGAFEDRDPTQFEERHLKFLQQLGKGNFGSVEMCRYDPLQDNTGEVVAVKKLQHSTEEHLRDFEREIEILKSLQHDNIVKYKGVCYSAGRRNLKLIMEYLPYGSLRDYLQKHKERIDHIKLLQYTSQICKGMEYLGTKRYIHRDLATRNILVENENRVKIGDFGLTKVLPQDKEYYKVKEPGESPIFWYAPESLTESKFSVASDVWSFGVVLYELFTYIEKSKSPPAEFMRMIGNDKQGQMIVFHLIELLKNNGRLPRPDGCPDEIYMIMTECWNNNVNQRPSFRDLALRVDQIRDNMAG
T2 sequence (P23458 whole entry): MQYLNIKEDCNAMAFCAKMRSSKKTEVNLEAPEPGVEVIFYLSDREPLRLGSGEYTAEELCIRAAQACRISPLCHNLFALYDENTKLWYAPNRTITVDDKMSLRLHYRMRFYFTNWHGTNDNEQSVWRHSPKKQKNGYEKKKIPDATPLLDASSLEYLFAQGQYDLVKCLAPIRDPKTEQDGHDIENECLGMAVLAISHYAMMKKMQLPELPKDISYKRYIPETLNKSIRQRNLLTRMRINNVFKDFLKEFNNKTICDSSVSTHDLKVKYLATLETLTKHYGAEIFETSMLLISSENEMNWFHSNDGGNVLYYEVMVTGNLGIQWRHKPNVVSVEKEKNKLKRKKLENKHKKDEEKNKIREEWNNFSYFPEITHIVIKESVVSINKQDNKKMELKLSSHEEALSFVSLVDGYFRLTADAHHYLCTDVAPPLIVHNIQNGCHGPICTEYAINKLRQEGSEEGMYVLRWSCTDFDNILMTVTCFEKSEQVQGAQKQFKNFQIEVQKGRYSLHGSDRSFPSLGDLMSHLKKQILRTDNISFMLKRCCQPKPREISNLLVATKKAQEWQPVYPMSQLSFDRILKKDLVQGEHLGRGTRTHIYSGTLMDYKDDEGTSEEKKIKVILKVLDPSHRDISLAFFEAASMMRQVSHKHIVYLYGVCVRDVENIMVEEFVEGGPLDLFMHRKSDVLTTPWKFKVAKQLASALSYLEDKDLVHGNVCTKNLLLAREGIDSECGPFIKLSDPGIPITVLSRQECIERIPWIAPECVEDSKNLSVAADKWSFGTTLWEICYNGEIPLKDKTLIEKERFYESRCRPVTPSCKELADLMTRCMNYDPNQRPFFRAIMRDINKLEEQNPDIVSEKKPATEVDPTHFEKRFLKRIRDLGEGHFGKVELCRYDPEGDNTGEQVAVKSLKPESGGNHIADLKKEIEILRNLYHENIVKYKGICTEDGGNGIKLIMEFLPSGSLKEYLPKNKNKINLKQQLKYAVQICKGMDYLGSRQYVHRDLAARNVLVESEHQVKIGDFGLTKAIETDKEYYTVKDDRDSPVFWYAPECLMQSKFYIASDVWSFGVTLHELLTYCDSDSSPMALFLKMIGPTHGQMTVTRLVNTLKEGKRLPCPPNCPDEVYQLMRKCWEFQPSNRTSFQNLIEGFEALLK

Consider `N#CCC1(n2cc(-c3nc(-c4cnn(C5COC5)c4)cc4nccn34)cn2)CN(CC(F)(F)F)C1` [Example 105, 2-(3-(4-(7-(1-(Oxetan-3-yl)-1H-pyrazol-4-yl)imidazo[1,2-c]pyrimidin-5-yl)-1H-pyrazol-1-yl)-1-(2,2,2-trifluoroethyl)azetidin-3-yl)acetonitrile], for which the pIC50 at JAK3 is less than 6.00; on JAK1, 6.00 to 7.00; at Human Tyk2 kinase domain, greater than 8.00; on JAK2, 7.00 to 8.00.
As to `Cn1cc(-c2cc3nccn3c(-c3cnn(C4(CC#N)CN(S(=O)(=O)CCC(F)(F)F)C4)c3)n2)cn1` [Example 98, 2-(3-(4-(7-(1-methyl-1H pyrazol-4-yl)imidazo[1,2-c]pyrimidin-5-yl)-1H-pyrazol-1-yl)-1-(3,3,3-trifluoropropylsulfonyl)azetidin-3-yl)acetonitrile], the pIC50 against JAK3 was less than 6.00; against JAK1 it was 6.00 to 7.00; on Human Tyk2 kinase domain, greater than 8.00; on JAK2, 7.00 to 8.00.
For `CCCN1CCC(CC#N)(n2cc(-c3nc(-c4cnn(C)c4)cc4nccn34)cn2)CC1` [Example 30, 2-(4-(4-(7-(1-methyl-1H-pyrazol-4-yl)imidazo[1,2-c]pyrimidin-5-yl)-1H-pyrazol-1-yl)-1-propylpiperidin-4-yl)acetonitrile], in that order: less than 6.00, less than 6.00, 6.00 to 7.00 and less than 6.00.
The like results for `N#CCC1(n2cc(-c3nc(-c4ccc(C(F)(F)F)cc4)cc4nccn34)cn2)CN(S(=O)(=O)C(F)(F)F)C1` [Example 146, 2-(3-(4-(7-(4-(trifluoromethyl)phenyl)imidazo[1,2-c]pyrimidin-5-yl)-1H-pyrazol-1-yl)-1-(trifluoromethylsulfonyl)azetidin-3-yl)acetonitrile] were, in that order, less than 6.00, 7.00 to 8.00, greater than 8.00 and 6.00 to 7.00.
Regarding `Cn1cc(-c2cc3nccn3c(-c3cnn(C(CC#N)C4CC4)c3)n2)cn1` (single isomer, unassigned; enantiomer 1) [Example 3, Enantiomer 1 of 3-cyclopropyl-3-(4-(7-(1-methyl-1H-pyrazol-4-yl)imidazo[1,2-c]pyrimidin-5-yl)-1H-pyrazol-1-yl)propanenitrile (Peak 1)], the negative logarithm of the IC50 (pIC50) was 6.00 to 7.00 on JAK3, 6.00 to 7.00 against JAK1, 7.00 to 8.00 on Human Tyk2 kinase domain and 6.00 to 7.00 at JAK2.
Turning to `N#CCC(C1CC1)n1cc(-c2nc(-c3ccc(N4CC5CCC(C4)O5)cc3)cc3nccn23)cn1` (stereo not shown) [Example 58, 3-(4-(7-(4-(8-Oxa-3-azabicyclo[3.2.1]octan-3-yl)phenyl)imidazo[1,2-c]pyrimidin-5-yl)-1H-pyrazol-1-yl)-3-cyclopropylpropanenitrile], the pIC50 is 6.00 to 7.00 at JAK3, 7.00 to 8.00 at JAK1, greater than 8.00 on Human Tyk2 kinase domain and 7.00 to 8.00 against JAK2.
Turning to `Cn1cc(-c2cc3nccn3c(-c3cnn(C4(CC#N)CNC4)c3)n2)cn1` [Example 62, 2-(3-(4-(7-(1-Methyl-1H-pyrazol-4-yl)imidazo[1,2-c]pyrimidin-5-yl)-1H-pyrazol-1-yl)azetidin-3-yl)acetonitrile hydrochloride], the pIC50 was less than 6.00 on JAK3, less than 6.00 on JAK1, 6.00 to 7.00 on Human Tyk2 kinase domain and less than 6.00 at JAK2.
Take `CCn1cc(-c2cc3nccn3c(-c3cnn(C(CC#N)C4CC4)c3)n2)cn1` (stereo not shown) [Example 40, 3-cyclopropyl-3-(4-(7-(1-ethyl-1H-pyrazol-4-yl)imidazo[1,2-c]pyrimidin-5-yl)-1H-pyrazol-1-yl)propanenitrile]: the pIC50 against JAK3 was 6.00 to 7.00; on JAK1, 6.00 to 7.00; on Human Tyk2 kinase domain, greater than 8.00; on JAK2, 7.00 to 8.00.
Turning to `CN1CCN(c2ccc(-c3cc4nccn4c(-c4cnn(C5(CC#N)CN(CC(F)(F)F)C5)c4)n3)cc2)CC1` [Example 137, 2-(3-(4-(7-(4-(4-methylpiperazin-1-yl)phenyl)imidazo[1,2-c]pyrimidin-5-yl)-1H-pyrazol-1-yl)-1-(2,2,2-trifluoroethyl)azetidin-3-yl)acetonitrile], the pIC50 was 6.00 to 7.00 against JAK3, 7.00 to 8.00 at JAK1, greater than 8.00 against Human Tyk2 kinase domain and 7.00 to 8.00 on JAK2.
Regarding `CN1CCC(c2ccc(-c3cc4nccn4c(-c4cnn(C(CC#N)C5CCCC5)c4)n3)cc2)CC1` (single isomer, unassigned) [Example 112, 3-cyclopentyl-3-(4-(7-(4-(1-methylpiperidin-4-yl)phenyl)imidazo[1,2-c]pyrimidin-5-yl)-1H-pyrazol-1-yl)propanenitrile], the pIC50 was 6.00 to 7.00 against JAK3, 7.00 to 8.00 against JAK1, greater than 8.00 against Human Tyk2 kinase domain and 7.00 to 8.00 against JAK2.
